Assay results: article PMC9778238, “How Discoloration of Porcine Cruor Hydrolysate Allowed the Identification of New Antifungal Peptides” (Foods, 2022)
Ends that are not written are not given here.

System: R. mucilaginosa
Assay: not given
Assay type: cell-based, Rhodotorula mucilaginosa
Details: 48 h
Protocol: (§1) The peptide synthesis was performed by Laboratoire Innodal (Lévis, QC, Canada). Fourteen peptides were synthesized by standard solid-phase peptide synthesis (SPPS) on an automated peptide synthesizer. Solubility of peptides was first tested on saline water with 0.85% NaCl. […] Each peptide was solubilized in a small volume of dimethylsulfoxide (DMSO), and water was subsequently added until a 10% (v/v) DMSO concentration was reached. The stock solution of each peptide was at a concentration of 2.5 mM. The pH of the final solution was below the isoelectric point of each peptide. […] Antifungal assays on synthesized peptides were realized using methods described below.
(§2) The antibacterial activity was tested against two indicator bacteria including Escherichia coli and Listeria ivanovii (Table 1). These two strains are Gram-negative and Gram-positive, respectively and are commonly sensitive strains. They were subcultured in Tryptic Soy Broth (TSB) two times for 18 h, at 37 °C for E. coli and 30 °C for L. ivanovii. The antifungal activity was evaluated against four filamentous molds and four yeasts (Table 1). All the strains for antifungal assays were chosen since they are the most often strains identified as spoilage microorganisms of food products, specifically in the meat industry. The 4 filamentous molds were subcultured on Potato Dextrose Agar (PDA) at 25 °C, for 7 days, 2 times. The 4 yeasts were subcultured in Potato Dextrose Broth (PDB) at 25 °C, for 48 h, 2 to 3 times (Table 1).
(§3) The minimum inhibitory concentration (MIC) of the hydrolysate that induces inhibition of the microorganism tested was determined according to Froidevaux et al.. To quantify the growth inhibition, 96-well microplate assays were performed using Mueller-Hinton broth (MH, BD-Difco, Sparks, MD, USA). Samples were micro-diluted from the stock concentration of 40 mg/mL of proteins. The inoculum was pre-diluted in MH at a concentration of 5 × 10^5 CFU/mL. Then, the microplate was incubated 24 h at 37 °C for E. coli and at 30 °C for L. ivanovii. The molds and yeasts strains were, respectively tested at 2 × 10^4 and 1 × 10^5 conidia or yeast per mL [32]. The automated cell counter was used to determine the concentration. The microplates were incubated for 48 h at 25 °C for the molds and R. mucilaginosa, and at 35 °C for the other yeast strains. The MIC was the lowest concentration that inhibited completely the microorganism growth. The growth was measured by absorbance at 595 nm (Infinite® F200 PRO, Tecan Inc., Durham, NC, USA).
(§4) Then, they were, respectively incubated for 24 h at 37 °C or 30 °C and 48 h at 25 °C. The lowest concentration that inhibited microorganism growth is the MBC or MFC.

Q: Which results are given for NALAHKYH?
A: MFC: 0.3 ± 0.0 mM; MIC: 0.3 ± 0.0 mM

Q: With HVDPENFRLLGNVIVVVL as the substance, how does the MFC read?
A: 0.3 ± 0.1 mM

Q: And the MIC?
A: 0.10 ± 0.05 mM

Q: Which MFC does the source give for FRLLGNVIVVV here?
A: 0.3 ± 0.0 mM

Q: What about the MIC of the same substance?
A: 0.156 mM

Q: Which results are given for LAHKYH [LAHKYH]?
A: MFC: 1.3 ± 0.0 mM; MIC: 1.25 mM

Q: Which results are given for GHLDDLPGALSALSDLHAHKL?
A: MFC: 0.6 ± 0.0 mM; MIC: 0.6 ± 0.0 mM

Same assay, conditions: synthesized peptides, stock 2.5 mM in 10% (v/v) DMSO, highest tested concentration 1.25 mM, 48 h at 25 °C, mean ± SD

Q: For HVDPEN, which MIC is on record?
A: not active

System: Paecilomyces spp.
Assay: not given
Assay type: cell-based
Details: 48 h
Protocol: as §1, §2, §3, §4

Q: Which MFC does the source give for NALAHKYH here?
A: 0.3 ± 0.0 mM

Q: What about the MIC of the same substance?
A: 0.2 ± 0.0 mM

Q: Which MIC does the source give for HVDPENFRLLGNVIVVVL here?
A: >1.3 ± 0.0 mM

Q: With FRLLGNVIVVV as the substance, how does the MFC read?
A: 0.6 ± 0.0 mM

Q: What about the MIC of the same substance?
A: 0.625 mM

Q: With LAHKYH [LAHKYH] as the substance, how does the MFC read?
A: 1.3 ± 0.0 mM

Q: And the MIC?
A: 1.25 mM

Q: Which results are given for GHLDDLPGALSALSDLHAHKL?
A: MFC: 1.7 ± 0.7 mM; MIC: 1.3 ± 0.0 mM

Same assay, conditions: synthesized peptides, stock 2.5 mM in 10% (v/v) DMSO, highest tested concentration 1.25 mM, 48 h at 25 °C, mean ± SD

Q: For HVDPEN, which MIC is on record?
A: not active

System: not listed separately
Assay: RP-UPLC-MS/MS peptide profile, retention time
Assay type: physicochemical
Details: Poroshell 120 EC-C18, water/acetonitrile with 0.1% formic acid, B 1–13% in 6 min, 35% at 25 min, 100% at 35 min, 23 °C, 500 µL/min, early elution read as high polarity, late as higher hydrophobicity
Text: RP-UPLC coupled with MS/MS Q-TOF system was used to separate, identify, and characterize the peptide population, present in the porcine cruor hydrolysates. RP-UPLC tests were operated using a 1290 Infinity II UPLC (Agilent Technologies, Santa Clara, CA, USA), following the method proposed by. This chromatography instrument was composed of a binary pump (G7120A), a multisampler (G7167B), an in-line degasser and a variable wavelength detector (VWD G7114B) adjusted to 214 nm. […] Then, solvent B ramped to 100% until 35 min and was maintained for 10 min before returning to initial conditions. The cruor hydrolysate samples (2% protein (w/v)) were filtered through 0.22 µm PVDF filter and a volume of 0.25 µL was loaded onto a Poroshell 120 EC-C18 column (2.1 × 100 mm i.d., 2.7 micron, Agilent, Santa Clara, CA, USA) at a flow rate of 500 µL/min.
The determination of the accurate mass was performed using a hybrid ion mobility quadrupole time of flight mass spectrometer (6560 high-definition mass spectrometry (IM-Q-TOF), Agilent, Santa Clara, CA, USA). Calibration was completed using an ESI-L low concentration tuning mix (G1969-85000, Agilent Technologies, Santa Clara, CA, USA). Nitrogen was selected as the drying (13.0 L/min, 150 °C) and nebulizer gas (30 psi). The voltages were set at 3500 V for the capillary, 300 V for the nozzle and 400 V for the fragmentor. Positive mode at Extended Dynamic Range, 2 Ghz, 3200 m/z was used to record signals. Data acquisition and analysis were performed using the Agilent Mass Hunter Software package (LC/MS Data Acquisition, Version B.08.00 and Qualitative Analysis for IM-MS, Version B.07.00 Service Pack 2 with BioConfirm Software and BioConfirm, Version 10.0). A false discovery rate of 1% was used for extraction of biomolecules. […] Finally, these peptides were compared with bioactive peptides already known in the literature or analyzed with a predictive antimicrobial database.

Q: With “LSDLHAHKLRVDPVNF [porcine hemoglobin fragment α 83–98]” as the substance, how does the “Retention Time” value read?
A: 10.23 min

Q: With “ANVSTVLTSKYR [porcine hemoglobin fragment α 130–141]” as the substance, how does the “Retention Time” value read?
A: 8.45 min

Q: Which “Retention Time” value does the source give for “LGFPTTKTYFPHF [porcine hemoglobin fragment α 34–46]” here?
A: 16.46 min

Q: Which “Retention Time” value does the source give for “ERMFLGFPTTKTYFPHF [porcine hemoglobin fragment α 30–46]” here?
A: 18.24 min

Q: For “GLWGKVNVDEVGGEALGRL [porcine hemoglobin fragment β 14–32]”, which “Retention Time” value is on record?
A: 16.84 min

Q: For “FESF [porcine hemoglobin fragment β 43–46]”, which “Retention Time” value is on record?
A: 9.60 min

Q: With “KLLSHCLLVTLAAHHPD [porcine hemoglobin fragment α 99–115]” as the substance, how does the “Retention Time” value read?
A: 11.10 min

Q: Which “Retention Time” value does the source give for “KLLSHCL [porcine hemoglobin fragment α 99–105]” here?
A: 8.01 min

Q: With “FLGFPTTKTYFPHF [porcine hemoglobin fragment α 33–46]” as the substance, how does the “Retention Time” value read?
A: 19.13 min

Q: Which “Retention Time” value does the source give for “AAFQKVVAGVANA [porcine hemoglobin fragment β 129–141]” here?
A: 10.86 min

Q: With “LANVSTVLTSKYR [porcine hemoglobin fragment α 129–141]” as the substance, how does the “Retention Time” value read?
A: 10.36 min

Q: For “DQLHVDPENFRLLGNVIVVVLARRLGHDFNPNVQ [porcine hemoglobin fragment β 95–128]”, which “Retention Time” value is on record?
A: 24.79 min

Q: With “PTTKTYFPHF [porcine hemoglobin fragment α 37–46]” as the substance, how does the “Retention Time” value read?
A: 12.01 min

Q: For “SFGDLSNADAVMGNPKVK [porcine hemoglobin fragment β 45–62]”, which “Retention Time” value is on record?
A: 12.90 min

Q: With “FRLLGNVIVVVLARRLGHDFNPNVQ [porcine hemoglobin fragment β 104–128]” as the substance, how does the “Retention Time” value read?
A: 21.87 min

Q: For “HVDPENFRLLGNVIVVVLARRLGHDFNPNVQA [porcine hemoglobin fragment β 98–129, synthesized]”, which “Retention Time” value is on record?
A: 23.33 min

Q: With “HVDPENFRLLGNVIVVVLARRLGHDFNPNVQ [porcine hemoglobin fragment β 98–128, synthesized]” as the substance, how does the “Retention Time” value read?
A: 23.26 min

Q: For “CLLVTLAAHHPDDFNPS [porcine hemoglobin fragment α 104–120]”, which “Retention Time” value is on record?
A: 12.90 min

Q: With “FESFGDLSNAD [porcine hemoglobin fragment β 43–53]” as the substance, how does the “Retention Time” value read?
A: 12.20 min

Q: For “STVLTSKYR [porcine hemoglobin fragment α 133–141]”, which “Retention Time” value is on record?
A: 6.67 min

Q: Which “Retention Time” value does the source give for “LERMFLGF [porcine hemoglobin fragment α 29–36]” here?
A: 17.60 min

Q: Which “Retention Time” value does the source give for “ERMFLGF [porcine hemoglobin fragment α 30–36]” here?
A: 16.27 min

Q: For “NLSHGSDQVKAHGQKVADALTKAVGHLDDLPGAL [porcine hemoglobin fragment α 47–80]”, which “Retention Time” value is on record?
A: 15.89 min

Q: For “VLSAADKANVKAAWGKVGGQAGAHGAEA [porcine hemoglobin fragment α 1–28]”, which “Retention Time” value is on record?
A: 9.15 min

Q: For “HVDPENFRLLGNVIV [porcine hemoglobin fragment β 98–112]”, which “Retention Time” value is on record?
A: 17.16 min

Q: Which “Retention Time” value does the source give for “KLLSHCLL [porcine hemoglobin fragment α 99–106]” here?
A: 10.93 min

Q: For “VLSAADKANVKAAWGKVGGQAGAHGAEALERM [porcine hemoglobin fragment α 1–32]”, which “Retention Time” value is on record?
A: 12.14 min

Q: Which “Retention Time” value does the source give for “TVLTSKYR [porcine hemoglobin fragment α 134–141]” here?
A: 6.54 min

Q: Which “Retention Time” value does the source give for “VTLAAHHPDDFNPSVHASLDKF [porcine hemoglobin fragment α 107–128]” here?
A: 11.37 min

Q: For “SFSDGLKHLDNLKGTFA [porcine hemoglobin fragment β 71–87]”, which “Retention Time” value is on record?
A: 12.90 min

Q: For “LLVVYPWTQRF [porcine hemoglobin fragment β 32–42]”, which “Retention Time” value is on record?
A: 19.00 min

Q: For “GAEALERMFLGFPT [porcine hemoglobin fragment α 25–38]”, which “Retention Time” value is on record?
A: 9.91 min

Q: Which “Retention Time” value does the source give for “SNADAVMGNPKVKAH [porcine hemoglobin fragment β 50–64]” here?
A: 9.91 min

Q: For “DPENFRLLGNVIVVVLA [porcine hemoglobin fragment β 100–116]”, which “Retention Time” value is on record?
A: 11.10 min

Q: With “SDLHAHKLRVDPVNF [porcine hemoglobin fragment α 84–98]” as the substance, how does the “Retention Time” value read?
A: 9.34 min

Q: For “PNVQAAFQKVVAGVANALA [porcine hemoglobin fragment β 125–143]”, which “Retention Time” value is on record?
A: 11.10 min

Q: Which “Retention Time” value does the source give for “VLSAADKANVKAAWGKVGGQAGAHGAEAL [porcine hemoglobin fragment α 1–29]” here?
A: 10.86 min

Q: For “VLTSKYR [porcine hemoglobin fragment α 135–141]”, which “Retention Time” value is on record?
A: 5.97 min

Q: Which “Retention Time” value does the source give for “TSKYR [known antimicrobial peptide, porcine hemoglobin fragment α 137–141]” here?
A: 1.64 min

Q: For “RMFLGFPTTKTYFPHF [porcine hemoglobin fragment α 31–46]”, which “Retention Time” value is on record?
A: 17.99 min

Q: With “LVVYPWTQRF [porcine hemoglobin fragment β 33–42]” as the substance, how does the “Retention Time” value read?
A: 16.65 min
